Columns and labels:
[1] = system: rhinovirus-ribonucleic acid; assay: Role of the hydrolyzable β-γ-oxygen-bridge in autocatalytic degradation of rhinovirus RNA; assay type: biochemical
Text: 3. The essential role of the hydrolyzable β-γ-oxygen-bridge in the nucleoside triphosphate for the autocatalytic degradation of the rhinovirus-ribonucleic acid was shown by: […]

[2] = system: radioactive-labeled rhinovirus ribonucleic acid; assay: Synergism test: inducible decomposition of P32-labeled rhinovirus RNA; assay type: biochemical; settings: 30 minutes, pH 7.6, 36° C.
Experimental: 6. The synergistic effect of the complexing agent (e.g. sodium pyrophosphate) and phosphorylating agent (e.g. adenosine triphosphate) was shown by means of the inducible decomposition of radioactive-labeled rhinovirus ribonucleic acid: Aliquotes (10^6 plaque-forming units) of purified rhinoviruses, the ribonucleic acid of which had been labeled with phosphorus-32, were incubated for 30 minutes with 5 n moles of adenosine triphosphate, either separately or with increasing quantities of sodium pyrophosphate at a pH-value of 7.6 and 36° C. As control values sodium pyrophosphate was used in various concentrations without adenosine triphosphate.

SMILES: Nc1ncnc2c1ncn2[C@@H]1O[C@H](COP(=O)(O)OP(=O)(O)O)[C@@H](O)[C@H]1O [adenosine diphosphate]
- induction of the autocatalytic RNA-degradation [1]: Inactivity

SMILES: O=P([O-])([O-])OP(=O)([O-])[O-].[Na+].[Na+].[Na+].[Na+] [Sodium pyrophosphate, sodium pyrophosphate]
- % degradation of the viral ribonucleic acid ([2]; adenosine triphosphate 0, sodium pyrophosphate 50 n moles): < 10%
- % degradation of the viral ribonucleic acid ([2]; adenosine triphosphate 0, sodium pyrophosphate 250 n moles): < 10%
- % degradation of the viral ribonucleic acid ([2]; adenosine triphosphate 0, sodium pyrophosphate 500 n moles): < 10%

SMILES: Nc1ncnc2c1ncn2[C@@H]1O[C@H](COP(=O)(O)OP(=O)(O)OP(=O)(O)O)[C@@H](O)[C@H]1O [Adenosine triphosphate, adenosine triphosphate]
- removal of P^32-labeled γ-phosphate during the reaction with rhinovirus ([1]; Mg^++ -ion free medium): formation of adenosine diphosphate and rhinovirus-bonded P^32
- % degradation of the viral ribonucleic acid ([2]; adenosine triphosphate 5 n moles, sodium pyrophosphate 0): < 7.5%

SMILES: Nc1ncnc2c1ncn2[C@@H]1O[C@H](COP(=O)(O)OP(=O)(O)NP(=O)(O)O)[C@@H](O)[C@H]1O [Adenosine-imido-diphosphate]
- initiating the autocatalytic inactivation of the rhinoviruses [1]: completely ineffective
